The target of this experiment is Active Human ERK2 (hERK2) (Homo sapiens (Human), UniProt P28482). The experiment is described as follows: Active Human ERK2 (hERK2) Activity Assay (IMAP-FP). Format: biochemical. As for the experimental part: Assays Active Human ERK2 (hERK2) Activity Assay:
Activated ERK2 activity was determined in an IMAP-FP assay (Molecular Devices). […] The final reaction in each well of 25 μL consists of 0.5 nM hERK2, 900 nM unlabeled peptide, 80 nM labeled-peptide, and 30 μM ATP. Phosphorylation reactions were allowed to proceed for 60 minutes and were immediately quenched by the addition of […] IMAP detection beads (1:1000 dilutions) in IMAP binding buffer (Molecular Devices) with 24 mM NaCl. Plates were read on EnVision reader after 60 minutes binding equilibration using Fluorescence Polarization protocol (Perkin Elmer).

Setting [1] is: phosphorylated active hERK2, 30 μM ATP, average, read-out: ERK 2 Human average IC50.
The mark [2] stands for this setting: read-out: AERK2 IC50 (Active human ERK2 Activity Assay).

This note sets out measurements from US9023865B2, “Compounds that are ERK inhibitors” (Merck Sharp & Dohme Corp., priority 2011, dated 2015).

Read-outs that look alike come from different tables or passages of the source.

Active Human ERK2 (hERK2), sequence (P28482 whole entry): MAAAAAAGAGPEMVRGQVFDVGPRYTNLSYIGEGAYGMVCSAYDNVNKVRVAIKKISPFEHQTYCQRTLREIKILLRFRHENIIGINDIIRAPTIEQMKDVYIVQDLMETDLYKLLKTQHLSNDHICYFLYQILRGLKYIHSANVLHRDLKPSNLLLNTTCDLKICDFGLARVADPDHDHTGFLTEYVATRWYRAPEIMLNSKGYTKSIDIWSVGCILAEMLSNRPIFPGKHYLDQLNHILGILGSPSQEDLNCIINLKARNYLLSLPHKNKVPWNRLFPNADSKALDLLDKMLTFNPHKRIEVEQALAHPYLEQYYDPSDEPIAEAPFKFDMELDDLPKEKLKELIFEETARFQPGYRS

One may read the IC50 as the point on the concentration scale where inhibition reaches its midpoint. On to `Cc1cc(-c2n[nH]c3cc(NC(=O)NCc4cccc(Cl)c4)ncc23)ccn1` [Example 27, 1-(3-chlorobenzyl)-3-[3-(2-methylpyridin-4-yl)-1H-pyrazolo[4,3-c]pyridin-6-yl]urea], for which the IC50 under setting [1] turned out to be 0.713 nM and the IC50 under setting [2] is 0.2 to 1.7 nM.
Regarding `CC(C)Oc1ccc(-c2n[nH]c3cc(NC(=O)N[C@H](C)c4ccccc4)ncc23)cn1` [Example 28, 1-{3-[6-(1-methylethoxy)pyridin-3-yl]-1H-pyrazolo[4,3-c]pyridin-6-yl}-3-[(1R)-1-phenylethyl]urea], the IC50 under setting [1] worked out at 3.63 nM.
Turning to `C[C@@H](NC(=O)Nc1cc2[nH]nc(-c3cnn(C)c3)c2cn1)c1ccccc1` [Example 29, 1-[3-(1-methyl-1H-pyrazol-4-yl)-1H-pyrazolo[4,3-c]pyridin-6-yl]-3-[(1R)-1-phenylethyl]urea], the IC50 is, setting by setting: under setting [1], 0.334 nM; under setting [2], 0.2 to 1.7 nM.
Consider `C[C@@H](NC(=O)Nc1cc2[nH]nc(-c3ccc(F)cc3)c2cn1)c1ccccc1` [Example 30, 1-[3-(4-fluorophenyl)-1H-pyrazolo[4,3-c]pyridin-6-yl]-3-[(1R)-1-phenylethyl]urea], for which the IC50 reads like this: under setting [1], 0.85 nM; under setting [2], 0.2 to 1.7 nM.
On to `Cc1cc(-c2n[nH]c3cc(NC(=O)N[C@H](C)c4ccccc4)ncc23)cc(C)n1` [Example 31, 1-[3-(2,6-dimethylpyridin-4-yl)-1H-pyrazolo[4,3-c]pyridin-6-yl]-3-[(1R)-1-phenylethyl]urea], for which the IC50 is 0.29 nM under setting [1] and 0.2 to 1.7 nM under setting [2].
As for `Cc1cc(-c2n[nH]c3cc(NC(=O)NCc4cccc5ccccc45)ncc23)ccn1` [Example 32, 1-[3-(2-methylpyridin-4-yl)-1H-pyrazolo[4,3-c]pyridin-6-yl]-3-(naphthalen-1-ylmethyl)urea], the IC50 under setting [1] was determined as 3.92 nM.
Turning to `COc1ccc(CNC(=O)Nc2cc3[nH]nc(-c4ccc(F)cc4)c3cn2)cc1OC` [Example 33, 1-(3,4-dimethoxybenzyl)-3-(3-(4-fluorophenyl)-1H-pyrazolo[4,3-c]pyridin-6-yl)urea], the IC50 under setting [1] came to 15.2 nM.
As for `NC(=O)Nc1cc2[nH]nc(-c3ccc(F)cc3)c2cn1` [Example 34, 1-(3-(4-fluorophenyl)-1H-pyrazolo[4,3-c]pyridin-6-yl)urea], the IC50 under setting [1] is 1.68 nM and the IC50 under setting [2] was 0.2 to 1.7 nM.
In the case of `Cc1cc(-c2n[nH]c3cc(NC(=O)NCC4CC4)ncc23)ccn1` [Example 35, 1-(cyclopropylmethyl)-3-[3-(2-methylpyridin-4-yl)-1H-pyrazolo[4,3-c]pyridin-6-yl]urea], the IC50 under setting [1] was 2.1 nM.
Consider `Cc1cc(-c2n[nH]c3cc(NC(=O)NC(C)(C)C)ncc23)ccn1` [Example 36, 1-tert-butyl-3-[3-(2-methylpyridin-4-yl)-1H-pyrazolo[4,3-c]pyridin-6-yl]urea], for which the IC50 under setting [1] turned out to be 32.6 nM.
With `Cc1cc(-c2n[nH]c3cc(NC(=O)NCC4(O)CC4)ncc23)ccn1` [Example 37], the IC50 under setting [1] is 9.9 nM.
As for `Cc1cc(-c2n[nH]c3cc(NC(=O)NC=C4CC4)ncc23)ccn1` [Example 38, 1-(cyclopropylidenemethyl)-3-[3-(2-methylpyridin-4-yl)-1H-pyrazolo[4,3-c]pyridin-6-yl]urea], the IC50 under setting [1] came out at 481 nM.
Turning to `Cc1cc(-c2n[nH]c3cc(NC(=O)NC4CNC4)ncc23)ccn1` [Example 39, 1-azetidin-3-yl-3-[3-(2-methylpyridin-4-yl)-1H-pyrazolo[4,3-c]pyridin-6-yl]urea], the IC50 under setting [1] was found to be 60.3 nM.
On the same count and under the same terms, to `COCCNC(=O)Nc1cc2[nH]nc(-c3ccnc(C)c3)c2cn1` [Example 40, 1-(2-methoxyethyl)-3-[3-(2-methylpyridin-4-yl)-1H-pyrazolo[4,3-c]pyridin-6-yl]urea] belongs 2.9 nM.
As for `Cc1cc(-c2n[nH]c3cc(NC(=O)NC(C4CC4)C(F)(F)F)ncc23)ccn1` (stereo not drawn) [Example 41, 1-(1-cyclopropyl-2,2,2-trifluoroethyl)-3-[3-(2-methylpyridin-4-yl)-1H-pyrazolo[4,3-c]pyridin-6-yl]urea], the IC50 under setting [1] worked out at 4.48 nM.
Turning to `Cc1cc(-c2n[nH]c3cc(NC(=O)NCc4csc(C)n4)ncc23)ccn1` [Example 43, 1-[3-(2-methylpyridin-4-yl)-1H-pyrazolo[4,3-c]pyridin-6-yl]-3-[(2-methyl-1,3-thiazol-4-yl)methyl]urea], the IC50 under setting [1] was found to be 0.934 nM and the IC50 under setting [2] was in the range of 0.2 to 1.7 nM.
Regarding `Cc1cc(-c2n[nH]c3cc(NC(=O)NCc4ccc5ccccc5c4)ncc23)ccn1` [Example 45, 1-[3-(2-methylpyridin-4-yl)-1H-pyrazolo[4,3-c]pyridin-6-yl]-3-(naphthalen-2-ylmethyl)urea], the 50% inhibitory concentration (IC50) under setting [1] was found to be 2.74 nM.
Take `Cc1cc(-c2n[nH]c3cc(NC(=O)N(C)Cc4cccnc4)ncc23)ccn1` [Example 46, 1-methyl-3-[3-(2-methylpyridin-4-yl)-1H-pyrazolo[4,3-c]pyridin-6-yl]-1-(pyridin-3-ylmethyl)urea]: under setting [1], the IC50 turned out to be 763 nM.
For `Cc1cc(-c2n[nH]c3cc(NC(=O)NCCc4ccccn4)ncc23)ccn1` [Example 47, 1-[3-(2-methylpyridin-4-yl)-1H-pyrazolo[4,3-c]pyridin-6-yl]-3-(2-pyridin-2-ylethyl)urea], the IC50 under setting [1] is 2.34 nM.
As to `Cc1cc(-c2n[nH]c3cc(NC(=O)NC(C)c4cccnc4)ncc23)ccn1` (stereo not drawn) [Example 49, 1-[3-(2-methylpyridin-4-yl)-1H-pyrazolo[4,3-c]pyridin-6-yl]-3-(1-pyridin-3-ylethyl)urea], the IC50 is 1.04 nM under setting [1] and 0.2 to 1.7 nM under setting [2].
On to `COCCN(Cc1cccnc1)C(=O)Nc1cc2[nH]nc(-c3ccnc(C)c3)c2cn1` [Example 50, 1-(2-methoxyethyl)-3-[3-(2-methylpyridin-4-yl)-1H-pyrazolo[4,3-c]pyridin-6-yl]-1-(pyridin-3-ylmethyl)urea], for which the IC50 under setting [1] was determined as 899 nM.
Take `Cc1cc(-c2n[nH]c3cc(NC(=O)NCc4cncc(F)c4)ncc23)ccn1` [Example 51, 1-[(5-fluoropyridin-3-yl)methyl]-3-[3-(2-methylpyridin-4-yl)-1H-pyrazolo[4,3-c]pyridin-6-yl]urea]: the IC50 is 1 nM under setting [1] and 0.2 to 1.7 nM under setting [2].
Take `Cc1cc(-c2n[nH]c3cc(NC(=O)NCc4c(F)cccc4F)ncc23)ccn1` [Example 52, 1-(2,6-difluorobenzyl)-3-[3-(2-methylpyridin-4-yl)-1H-pyrazolo[4,3-c]pyridin-6-yl]urea]: the IC50 was 0.655 nM under setting [1] and 0.2 to 1.7 nM under setting [2].
The matching figures for `Cc1cc(-c2n[nH]c3cc(NC(=O)NCc4cccc(F)c4)ncc23)ccn1` [Example 53, 1-(3-fluorobenzyl)-3-[3-(2-methylpyridin-4-yl)-1H-pyrazolo[4,3-c]pyridin-6-yl]urea]: 0.245 nM and 0.2 to 1.7 nM.
`Cc1cc(-c2n[nH]c3cc(NC(=O)NCc4ccc(C(F)(F)F)cc4)ncc23)ccn1` [Example 54, 1-[3-(2-methylpyridin-4-yl)-1H-pyrazolo[4,3-c]pyridin-6-yl]-3-[4-(trifluoromethyl)-benzyl]urea]: the IC50 under setting [1] was found to be 6.52 nM.
Regarding `Cc1cc(-c2n[nH]c3cc(NC(=O)Nc4ccc(NCCc5ccccc5)nn4)ncc23)ccn1` [Example 55, 1-[3-(2-methylpyridin-4-yl)-1H-pyrazolo[4,3-c]pyridin-6-yl]-3-{6-[(2-phenylethyl)amino]pyridazin-3-yl}urea], the IC50 under setting [1] turned out to be 35 nM.
